Several values for one entry are separate records, joined by “and”; a condition that tells them apart may be missing. Equal values may be shown once. Read-outs that look alike come from different tables or passages of the source.
Tests used:
[1] = Tissue binding in CD-1 mouse brain homogenate (equilibrium dialysis); conditions: 2 μM
[2] = Metabolic stability in human liver S9; assay type: in vitro ADME; conditions: human liver S9, 1 μM
Description: Incubation Buffer (PBK): 50 mM potassium phosphate buffer was prepared from 1 M potassium phosphate buffer, pH 7.2. […] The dilution of […] was prepared by 90% methanol/10% DMSO, then 10 μM working solutions were prepared by diluting the 0.1 mM intermediates with 50 mM PBK. […] Prior to use, the stock solutions were brought to room temperature and thoroughly mixed. […] Cofactors Solutions: the mixture of cofactors solution was made at 10 mM of NADPH and 10 mM of UDPGA in PBK buffer.
(§1) The incubation was carried out in 96-well plates. The liver S9 working solutions were added to 96-well plates (80 μL/well) in duplicate. […] Reaction was initiated by adding cofactor mixture 10 μL/well. The plates were incubated at 37° C. in a water bath with shaking. […] The final organic solvent content in the incubation was ≤1%.
At specified time points, i.e., 5, 10, 20, 30 and 60 minutes, NCF60 (without adding NADPH (Nicotinamide-adenine dinucleotide phosphate, reduced form) and UDPGA (Uridine 5′-diphosphoglucuronic acid trisodium salt) replaced with PBK buffer reaction was stopped by adding three volumes of stop solution. The time zero (To) samples were prepared by adding three volumes of stop solution to liver S9 samples, followed by addition of test article or control, and cofactor mixture solution 10 μL/well.
Subsequently, 100 μL of supernatant.
Positive controls: 7-ethoxycoumarin and 7-hydroxycoumarin.

[3] = Metabolic stability in human intestinal homogenate; assay type: in vitro ADME; conditions: human intestinal homogenate, 1 μM
Description: Incubation Buffer (PBK): 50 mM potassium phosphate buffer (PBK) was prepared from 1 M potassium phosphate buffer, pH 7.2. […] The dilution of 1 mM intermediate was prepared from 10 mM stock with 90% methanol/water, then […] working solutions were prepared by diluting the 1 mM intermediates with 50 mM PBK. […] Prior to use, the stock solutions were brought to room temperature and thoroughly mixed. […] Cofactors Solutions: the cofactor solution was made at 10 mM of NADPH (nicotinamide-adenine dinucleotide phosphate, reduced form) in 50 mM PBK buffer.
as §1, with “intestinal homogenate mixture solution was” for “liver S9 working solutions were”, “solution at” for “mixture”, “µL/well.” for “μL/well.”
At specified time points, i.e., 5, 10, 20, 30 and 60 minutes, NCF60 (no cofactor at 60 min, without adding NADPH replaced with 50 mM PBK buffer) reaction was stopped by adding three volumes of stop solution. The time zero (To) samples were prepared by adding three volumes of stop solution to intestinal homogenate samples, followed by addition of test article or control, and cofactor solution 10 μL/well.
Subsequently, 100 μL of supernatant was removed from each well, diluted with 100 μL pure water and analyzed by LC/MS/MS.
A study was conducted to examine the metabolic stability. […] Positive controls: 7-hydroxycoumarin and Testosterone.

[4] = In vitro stability in human plasma; assay type: in vitro ADME; conditions: human plasma, 2.0 μM
Description: Test Article Solutions: COMPOUND A, COMPOUND B and COMPOUND C stock solutions at 10 mM were prepared in dimethyl sulfoxide (DMSO). Further dilution with DMSO was made to prepare 2.0 mM. The working solutions of 50 μM was prepared with 20% MeOH/water. […] Prior to use, the stock solutions were brought to room temperature and thoroughly mixed and prepared same as described above.
Incubations were conducted in 96-well plate format. The time points defined for this study are 0, 5, 15, 30 and 60 minutes.
An appropriate volume of plasma from test species were added to a 96-deep well plate, and COMPOUND A, COMPOUND B and COMPOUND C working solution was spiked into the plasma in duplicate to achieve a final concentration of 2.0 μM. For positive controls, the rat plasma was spiked with enalapril, the dog plasma spiked with bisacodyl and the human plasma was spiked with propantheline. All spiked plasma sample plates were incubated in a water bath at 37° C. with shaking.
At the end of each time point, samples were immediately quenched with three volume of cold quenching solution.
A study was conducted to examine the plasma stability. Test Compounds: COMPOUND D, COMPOUND E, and Viloxazine. Positive controls: Enalapril and Propantheline.

[5] = 80 mg/kg PO; for Tlast: COMPOUND C (parent) in plasma
[6] = mouse brain homogenate, 4 hr dialysis (COMPOUND A 1 hr)

CCOc1ccccc1OC[C@@H]1CN(C(=O)OC(OC(=O)[C@H](N)C(C)C)C(C)C)CCO1 (stereo partly shown) [COMPOUND C]
stability in mouse brain homogenate ([1]; dialysis conditions): unstable
% Unbound Experimental ([1]; mouse brain homogenate, 4 hr): 20.9%
Analyte Peak area/IS Peak area CD (brain homogenate side) [1, 6]: 0.002 and 0.003
Analyte Peak area/IS Peak area CR (buffer side) [1, 6]: 0.001
Analyte Peak area/IS Peak area Co (time zero) ([1]; mouse brain homogenate, time zero): 0.036 and 0.037 and 0.041
% Remaining ([2]; 0 min): 100%
Analyte Peak area/IS Peak area Mean × 100 (n = 2) ([2]; 0 min): 10.6
% Remaining ([2]; 5 min): 7.7%
Analyte Peak area/IS Peak area Mean × 100 (n = 2) ([2]; 5 min): 0.808
% Remaining ([2]; 10 min): 4.2%
Analyte Peak area/IS Peak area Mean × 100 (n = 2) ([2]; 10 min): 0.446
% Remaining ([2]; 20 min): 2.8%
Analyte Peak area/IS Peak area Mean × 100 (n = 2) ([2]; 20 min): 0.297
% Remaining ([2]; 30 min): 1.5%
Analyte Peak area/IS Peak area Mean × 100 (n = 2) ([2]; 30 min): 0.160
% Remaining ([2]; 60 min): 0.19% and 0.2%
Analyte Peak area/IS Peak area Mean × 100 (n = 2) ([2]; 60 min): 0.020
% Remaining ([2]; NCF60 (no cofactors, 60 min)): 0.6%
Analyte Peak area/IS Peak area Mean × 100 (n = 2) ([2]; NCF60 (no cofactors, 60 min)): 0.061
half-life at 1 μM ([2]; pH 7.2): 8.12 min
microsomal CLint at 1 μM ([2]; pH 7.2, read-out: CLint(LS9)): 171 µL/min/mg
% Remaining ([3]; 0 min): 100%
Analyte Peak area/IS Peak area Mean (n = 2) ([3]; 0 min): 0.286
% Remaining ([3]; 5 min): 4.4%
Analyte Peak area/IS Peak area Mean (n = 2) ([3]; 5 min): 0.013
% Remaining ([3]; 10 min): 3.0%
Analyte Peak area/IS Peak area Mean (n = 2) ([3]; 10 min): 0.009
% Remaining ([3]; 20 min): 1.3%
Analyte Peak area/IS Peak area Mean (n = 2) ([3]; 20 min): 0.004
% Remaining ([3]; 30 min): 0.67%
Analyte Peak area/IS Peak area Mean (n = 2) ([3]; 30 min): 0.002
% Remaining ([3]; 60 min): 0.08%
Analyte Peak area/IS Peak area Mean (n = 2) ([3]; 60 min): 0.000
% Remaining ([3]; NCF60 (no cofactor at 60 min)): 0.12%
Analyte Peak area/IS Peak area Mean (n = 2) ([3]; NCF60 (no cofactor at 60 min)): 0.000
half-life at 1 μM ([3]; pH 7.2): 7.2 min
microsomal CLint at 1 μM ([3]; pH 7.2, read-out: CLint(HIH)): 192 µL/min/mg
half-life at 2 μM [4]: > 187 min
% Remaining ([4]; 0 min): 100%
Analyte Peak area/IS Peak area Mean (N = 2) ([4]; 0 min): 1.99
% Remaining ([4]; 5 min): 92.3%
Analyte Peak area/IS Peak area Mean (N = 2) ([4]; 5 min): 1.84
% Remaining ([4]; 15 min): 88.3%
Analyte Peak area/IS Peak area Mean (N = 2) ([4]; 15 min): 1.76
% Remaining ([4]; 30 min): 86.1%
Analyte Peak area/IS Peak area Mean (N = 2) ([4]; 30 min): 1.71
% Remaining ([4]; 60 min): 84.4%
Analyte Peak area/IS Peak area Mean (N = 2) ([4]; 60 min): 1.68
Clinical observation (tolerability) ([5]; beagle dogs): well tolerated
plasma concentration of the analog itself ([5]; LLOQ 3.0 ng/mL): well above LLOQ
Tlast ([5]; female beagle dogs): 16.0 h
Tlast ([5]; male beagle dogs): 16.0 h

— US20240343699A1, “DERIVATIVES OF SUBSTITUTED MORPHOLINES AND USES THEREOF” (Supernus Pharmaceuticals, Inc., priority 2023, published 2024)
